Experimental data reported in US11787854B2, “Immunological targeting of pathological tau proteins” (New York University, priority 2009, dated 2023).

What was measured:
[1] = system: homozygous JNPL3 tau P301L mice; assay: Rotarod test, actively immunized JNPL3 P301L mice; type: in vivo, mouse; conditions: at 5-6 months of age and at 8-9 months of age, vs adjuvant alone
Experimental: (§1) JNPL3 P301L mice received a subcutaneous injection of 100 μl followed by a second injection 2 weeks later and then monthly thereafter (unless otherwise indicated). Vaccination started at 2-3 months of age and continued until the animals were 8-9 months of age at which time the animals were perfused and their organs collected for analysis. The mice went through a battery of sensorimotor tests at 5-6 months and again at 8-9 months of age prior to sacrifice. Control mice received the adjuvant alone.
Rotarod Test: Animals were placed onto the rod (diameter 3.6 cm) apparatus to assess differences in motor coordination and balance by measuring fore- and hindlimb motor coordination and balance (Rotarod 7650 accelerating model; Ugo Basile, Biological Research Apparatus, Varese, Italy). This procedure was designed to assess motor behavior without a practice confound. The animals were habituated to the apparatus by receiving training sessions of two trials, sufficient to reach a baseline level of performance. Then, the mice were tested three additional times, with increasing speed. During habituation, the rotarod was set at 1.0 rpm, which was gradually raised every 30 sec, and was also wiped clean with 30% ethanol solution after each session. A soft foam cushion was placed beneath the apparatus to prevent potential injury from falling. […]

[2] = system: homozygous JNPL3 tau P301L mice; assay: Traverse beam test, actively immunized JNPL3 P301L mice; type: in vivo, mouse; conditions: at 8 months of age, vs adjuvant alone
Experimental: as §1
Traverse Beam: This task tests balance and general motor coordination and function integration. Mice were assessed by measuring their ability to traverse a graded narrow wooden beam to reach a goal box (Torres et al., “Behavioural, Histochemical and Biochemical Consequences of Selective Immunolesions in Discrete Regions of the Basal Forebrain Cholinergic System,” Neuroscience 63:95-122 (1994), which is hereby incorporated by reference in its entirety). The mice were placed on a 1.1 cm wide beam that is 50.8 cm long and suspended 30 cm above a padded surface by two identical columns. […] Mice were placed on the beam in a perpendicular orientation to habituate and were then monitored for a maximum of 60 sec. The number of foot slips each mouse had before falling or reaching the goal box were recorded for each of four successive trials. Errors are defined as footslips and were recorded numerically.

JNPL3 P301L tangle mice = conditions: mouse, in vivo
pathological tau = assay: PHF1 immunostaining of pathological tau in brain of actively immunized JNPL3 P301L mice; type: in vivo, mouse; conditions: compared to control mice receiving adjuvant only
Experimental: as §1, with “alone. […]” for “alone.”
Analysis of tissue sections was quantified with a Bioquant image analysis system. […] For quantitative image analysis of immunohistochemistry, the granular layer of the dentate gyrus was initially selected which consistently contained intraneuronal tau aggregates (pretangles and tangles). […] Four to five sections were analyzed per animal.

| Substance | functional impairment, rotarod test [1] | functional impairment, traverse beam (footslips) [2] | antibody response against the immunogen (JNPL3 P301L tangle mice) | antibody response against the tau epitope (JNPL3 P301L tangle mice) | pathological tau (PHF1 immunostaining) in the brain stem (pathological tau) | pathological tau (PHF1 immunostaining) in the dentate gyrus (pathological tau) |
| --- | --- | --- | --- | --- | --- | --- |
| IGS*TE [Tau260-264[P-Ser262]] | prevented functional impairment | prevented functional impairment | robust IgG response against the immunogen | a good portion of the antibody response is also generated against the tau epitope | reduced the levels of pathological tau | reduced the levels of pathological tau |
| RENAKAKTDHGAEIVYKXPVVSGDTXPRHL [Tau379-408[Asp396, 404]] | – | – | robust antibody (IgG) response | – | – | – |
| SRT*PS*LP [Tau210-216[P-Thr212-Ser214]] | – | – | robust IgG and IgM immune response | – | – | – |
| VRT*PPKS*PS [Tau229-237[P-Thr231-Ser235]] | – | – | robust antibody (IgG) response | – | – | – |
